In patent publication US20240390328A1, “PHARMACEUTICAL COMPOSITION CONTAINING AS ACTIVE INGREDIENT COMPOUND CONJUGATED TO G4 STRUCTURES OF CORONAVIRUSES FOR PREVENTION OR TREATMENT OF CORONAVIRUS INFECTIOUS DISEASES” (priority 2020, published 2024):
Like-named read-outs stand apart in the source and are kept apart here.

Tests used:
[1] = tested on: SARS-COV-2 RNA G4, position 1574 (NsP2); test: CD thermal melting analysis, G4 No. 4; assay type: binding; conditions: G4 No. 4, position 1574, NsP2; 15 μM RNA G4, 30 μM compound
Description: (§1) For melting, the samples were heated at 25 to 95° C. at 2° C./min with a data pitch of 0.5° C. CD melting analyses were performed with and without G4-binding compounds. The ratio of RNA: G4-binding compound was set to a molar ratio of 1:2. 15 μM RNA G4 was treated with 30 μM G4-binding compound and incubated at room temperature in a buffer comprising 10 mM Tris-HCl (pH 7.5) and 100 mM KCl for 30 minutes. Ellipticity was measured at 265 nm. Thereafter, data were normalized and plotted in OriginPro 2017 to calculate Tm values.
(§2) In addition, 15 μM RNA G4 was treated with 30 μM compound and incubated, and a CD thermal melting curve of RNA G4 (15 μM) was obtained in the presence or absence of the G4-binding compound. Furthermore, the effect of G4-binding compounds on the stability of SARS-COV-2 G4 was confirmed by measuring the difference in melting temperature (ΔTm). The results are illustrated in FIGS. 6A and 6B.

[2] = tested on: SARS-COV-2 RNA G4, position 2714 (NsP2 + NsP3); test: CD thermal melting analysis, G4 No. 5; assay type: binding; conditions: G4 No. 5, position 2714, NsP2 + NsP3; 15 μM RNA G4, 30 μM compound
Description: as §1, §2

[3] = tested on: SARS-COV-2 RNA G4, position 10261 (NsP5); test: CD thermal melting analysis, G4 No. 10; assay type: binding; conditions: G4 No. 10, position 10261, NsP5; 15 μM RNA G4, 30 μM compound
Description: as §1, §2

[4] = tested on: SARS-COV-2 RNA G4, position 14947 (NsP12); test: CD thermal melting analysis, G4 No. 12; assay type: binding; conditions: G4 No. 12, position 14947, NsP12; 15 μM RNA G4, 30 μM compound
Description: as §1, §2

[5] = tested on: SARS-COV-2 RNA G4, position 15208 (NsP12); test: CD thermal melting analysis, G4 No. 13; assay type: binding; conditions: G4 No. 13, position 15208, NsP12; 15 μM RNA G4, 30 μM compound
Description: as §1, §2

[6] = tested on: SARS-COV-2 RNA G4, position 28781 (Nucleocapsid protein); test: CD thermal melting analysis, G4 No. 22; assay type: binding; conditions: G4 No. 22, position 28781, Nucleocapsid protein; 15 μM RNA G4, 30 μM compound
Description: as §1, §2

[7] = tested on: SARS-COV-2 RNA G4, position 29123 (Nucleocapsid protein); test: CD thermal melting analysis, G4 No. 24; assay type: binding; conditions: G4 No. 24, position 29123, Nucleocapsid protein; 15 μM RNA G4, 30 μM compound
Description: as §1, §2

HCoV-OC43 = HCoV-OC43 dose response curve analysis, virion production (plaque assay), HCT-8 cells; assay type: cell-based; conditions: Betacoronavirus 1, OC43, 0.05 MOI, 72 hours after infection
HEK293T cells = test: Cell viability analysis (EZ Cytox), HEK293T cells; assay type: cell-based, Human; conditions: up to 75 μM
Description: (§3) Human embryonic kidney (HEK293T) cells and Vero cells were maintained in high-glucose Dulbecco's Modified Eagle's Medium (DMEM) supplemented with 10% fetal bovine serum (FBS) and 1% penicillin-streptomycin, and cultured in a humidified incubator at 37° C. and 5% CO2.
(§4) Cytotoxicity was analyzed using an EZ Cytox assay kit (DogenBio, Korea). HEK293T and Vero cells were put into a 96-well plate at a density of 2×10^4 cells/well in a medium volume of 100 μl/well and cultured at 37° C. for 24 hours. After 24 hours, the cells were treated with the G4-binding compound at various concentrations (0.1, 0.5, 1, 2.5, 5.5, 7.5, 10, 25, 50, and 75 μM) and cultured at 37° C. for 24 hours or 48 hours. Cell viability (%) was calculated by measuring the absorbance value at 455 nm (Luminescence multi-mode microplate reader Synergy™ Neo2) and using the following Equation 1. All experiments were performed in triplicate, and cells untreated with the compound were used as a control. DMEM with the EZ Cytox reagent was used as a blank.
(§5) The toxicity of PDS and PhenDC3 was confirmed in HEK293T cells and Vero cells. The results are illustrated in FIGS. 7A to 7D.

Vero cells = test: Cell viability analysis (EZ Cytox), Vero cells; assay type: cell-based; conditions: up to 75 μM after 48 hours
Description: as §3, §4, §5

N1-WT-G4-353 (Nsp1 G4) = test: In-vitro transcription/translation (IVT) analysis, EYFP reporter western blot, N1-WT-G4-353; assay type: biochemical, SARS-COV-2
N1-WT-G4-3467 (Nsp3 G4) = test: In-vitro transcription/translation (IVT) analysis, EYFP reporter western blot, N1-WT-G4-3467; assay type: biochemical, SARS-COV-2; conditions: N1-WT-G4-3467, compound at 15 to 50 μM
N1-Mut-G4-3467 = assay type: biochemical, SARS-COV-2; conditions: N1-Mut-G4-3467, 5, 15, 25 and 50 μM
SARS-COV-2 [8] = test: microbe, parasite or virus in culture; assay type: cell-based; conditions: Severe acute respiratory syndrome coronavirus 2; Vero cells, 0.0125 MOI, 24 hours; read-out: IC50, suppressing SARS-COV-2 infection (N protein expression)
SARS-COV-2 [9] = test: microbe, parasite or virus in culture; assay type: cell-based; conditions: Severe acute respiratory syndrome coronavirus 2, Vero cells, read-out: IC50, virion production

Row | SMILES | Tm in ° C. with compound [2] [°C] | ΔTm [2] [°C] | Tm in ° C. with compound [3] [°C] | ΔTm [3] [°C] | Tm in ° C. with compound [4] [°C] | ΔTm [4] [°C] | Tm in ° C. with compound [5] [°C] | ΔTm [5] [°C] | Tm in ° C. with compound [7] [°C] | ΔTm [7] [°C] | other results
1 | CN1CCC[C@H]1CCNC(=O)c1cn2c3c(c(N4CCC(c5cnccn5)C4)c(F)cc3c1=O)Oc1cc3ccccc3cc1-2 (stereo partly drawn) [CX-3543, 15-fluoro-N-[2-[(2S)-1-methylpyrrolidin-2-yl]ethyl]-18-oxo-14-(3-pyrazin-2-ylpyrrolidin-1-yl)-12-oxa-1-azapentacyclo [11.7.1.0^2,11.0^4,9.0^17,21]henicosa-2,4,6,8, 10, 13 (21), 14,16,19-nonaene-19-carboxamide] | 57.69 | −13.45 | 50.24 | 2.35 | 58.11 | 0.9 | 63.87 | 6.7 | 62.59 | 8.19 | Tm in ° C. with compound [1]: 53.43 °C; ΔTm [1]: 0.05 °C; Tm in ° C. with compound [6]: 82.9 °C; ΔTm [6]: 18.2 °C; IC50 (HCoV-OC43): 1400 nM
2 | NCCOc1cc(C(=O)Nc2cc(OCCN)c3ccccc3n2)nc(C(=O)Nc2cc(OCCN)c3ccccc3n2)c1 [PDS, 4-(2-aminoethoxy)-N2,N6-bis(4-(2-aminoethoxy)quinolin-2-yl)pyridine-2,6-dicarboxamide] | 86.49 | 15.35 | 60.66 | 12.77 | 82.16 | 24.95 | 60.16 | 2.99 | 73.83 | 19.43 | cytotoxicity in HEK293T cells (HEK293T cells): safe to use; cytotoxicity in Vero cells (Vero cells): no cytotoxicity was observed; EYFP expression reduced by (N1-WT-G4-353 (Nsp1 G4); N1-WT-G4-353, compound at 50 μM): 65%; suppressing EYFP reporter expression (N1-WT-G4-353 (Nsp1 G4); N1-WT-G4-353, concentrations less than 50 μM): not effective; EYFP expression suppressed by (N1-WT-G4-3467 (Nsp3 G4)): 60%; EYFP expression, concentration-dependent suppression (N1-Mut-G4-3467): not suppressed; IC50 (SARS-COV-2 [8]): 9450 nM; IC50 (SARS-COV-2 [9]; 24 hours after infection): 1450 nM; IC50 (SARS-COV-2 [9]; 48 hours after infection): 2770 nM
